{
  "source": "patent US20130295026A1",
  "about": "“FAST DISINTEGRATING COMPOSITIONS COMPRISING NABILONE AND RANDOMLY METHYLATED BETA CYCLODEXTRIN” (priority 2010, published 2013)",
  "key": {"[1]": {"assay": "Amount of Nabilone solubilized by cyclodextrin solutions, determined by extraction of the drug from lyophilized complexes (HPLC)", "conditions": "for Increase of Nabilone solubility compared to water: water <0.5 μg/ml", "procedure": "For the preparation of solubility isotherms, a surplus of Nabilone was added to a dilution series of cyclodextrins in distilled water. The surplus of Nabilone was approximately 130% of the maximum amount of Nabilone that could be resolved theoretically in the cyclodextrin solution. For the preparation of standard curves, an accurately weighted amount of Nabilone was added to an aqueous RAMEB solution. Then, the suspensions were stirred at 600 rpm at a constant temperature (4° C.-40° C.) in the cold room or in an environmental simulation chamber for the time periods indicated. Afterwards, the samples were centrifuged at 10,000 rpm and filtrated to remove undissolved particles prior to freeze-drying or HPLC analysis.\nThe filtrated solutions of the Nabilone—cyclodextrin complexes were frozen as a thin film on the inner side of round bottom glass container in a methanol—dry ice bath. Lyophilization was performed for 20 h using a Heto Power Dry LL3000 instrument (Thermo Fisher Scientific).\nFreeze-dried products were stirred with acetonitrile for 30 min to promote complex dissociation and extraction of Nabilone. Samples were centrifuged and the residue was washed again two times with acetonitrile. Combined acetonitrile supernatants were evaporated under vacuum and the residue dissolved in a defined amount of acetonitrile. After centrifugation (10,000 rpm, 5 min) the content of Nabilone was measured using HPLC and related to 1 ml of the initial reaction solution.\nMany cyclodextrins and cyclodextrin derivatives are not soluble in acetonitrile, which in contrast is the optimal solvent for Nabilone, preventing analysis of the Nabilone-cyclodextrin complexes with HPLC. […] The concentrations of the cyclodextrin solutions were adapted to their solubility in water. Whenever possible, concentrations of 15%, 20%, and 30% were selected."}, "[2]": {"conditions": "25° C; cited from earlier work"}},
  "data": [
    {"molecule": "CCCCCCC(C)(C)c1cc(O)c2c(c1)OC(C)(C)C1CCC(=O)CC21", "note": "(stereo not drawn) [Nabilone]", "values": [
      {"measurement": "Nabilone solubility in water", "setting": "[1]; H2O, no cyclodextrin", "result": 0.5, "unit": "µg/mL"},
      {"measurement": "solubility", "setting": "[1]; water, thermodynamic from solid, Nabilone solubility in water, H2O, no cyclodextrin", "result": "< 0.5", "unit": "µg/mL"},
      {"measurement": "Aqueous solubility of Nabilone", "setting": "[2]", "result": "less than 0.5 μg/ml"}
    ]},
    {"molecule": "hydroxypropyl-β-Cyclodextrin [HP-β-CD]", "values": [
      {"measurement": "Amount of Nabilone solubilized by 1 ml cyclodextrin solution", "setting": "[1]; 15% cyclodextrin solution", "result": "16.2 ± 5.4", "unit": "µg/mL"},
      {"measurement": "Amount of Nabilone solubilized by 1 ml cyclodextrin solution", "setting": "[1]; 20% cyclodextrin solution", "result": "32.2 ± 0.1", "unit": "µg/mL"},
      {"measurement": "Amount of Nabilone solubilized by 1 ml cyclodextrin solution", "setting": "[1]; 30% cyclodextrin solution", "result": "44.5 ± 0.8", "unit": "µg/mL"},
      {"measurement": "Increase of Nabilone solubility compared to water", "setting": "[1]; 30% cyclodextrin solution", "result": 90, "unit": "fold"}
    ]},
    {"molecule": "randomly methylated β-Cyclodextrin [RAMEB]", "values": [
      {"measurement": "Amount of Nabilone solubilized by 1 ml cyclodextrin solution", "setting": "[1]; 15% cyclodextrin solution", "result": "2620 ± 70", "unit": "µg/mL"},
      {"measurement": "Amount of Nabilone solubilized by 1 ml cyclodextrin solution", "setting": "[1]; 20% cyclodextrin solution", "result": "3330 ± 390", "unit": "µg/mL"},
      {"measurement": "Amount of Nabilone solubilized by 1 ml cyclodextrin solution", "setting": "[1]; 30% cyclodextrin solution", "result": "4,460±180 μg/ml"},
      {"measurement": "Increase of Nabilone solubility compared to water", "setting": "[1]; 30% cyclodextrin solution", "result": "up to 9.000 fold"}
    ]},
    {"molecule": "β-CD sulfobutyl ether sodium salt [SBE-β-CD]", "values": [
      {"measurement": "Amount of Nabilone solubilized by 1 ml cyclodextrin solution", "setting": "[1]; 30% cyclodextrin solution", "result": "<1", "unit": "µg/mL"}
    ]}
  ]
}
